From ChEMBL document CHEMBL5120860, “Ansellone J, a Potent in Vitro and ex Vivo HIV-1 Latency Reversal Agent Isolated from a Phorbas sp. Marine Sponge” (J Nat Prod, 2022) come the findings set out here.

The term inhibition denotes the drop in the measured response relative to a control, in per cent.

For data set [1], the system named is Human immunodeficiency virus 1. The data set can be described thus: Reversal of HIV-1 latency infected in GFP-fused human J-Lat 9.2 cells assessed as increase in GFP expression at 10 uM incubated for 24 hrs by flow cytometry analysis relative to control. Format: functional. (A flow cytometer gives signals particle by particle.)
The nature of data set [2]: Inhibition of HIV-1 latency reversal in GFP-fused human J-lat 9.2 cells at 3 uM incubated for 24 hrs in presence of pan-PKC inhibitor Go 6983 by flow cytometry analysis relative to control. Format: functional. Particulars: Human immunodeficiency virus 1, J-Lat 9.2.
Data set [3] has as its system Human immunodeficiency virus 1. Briefly: Reversal of HIV-1 latency infected in GFP-fused human J-Lat 9.2 cells assessed as increase in GFP expression at 3 uM incubated for 24 hrs by flow cytometry analysis relative to control. Type of data set: functional.
The nature of data set [4]: Inhibition of HIV-1 latency reversal in GFP-fused human J-lat 9.2 cells at 1 uM incubated for 24 hrs in presence of pan-PKC inhibitor Go 6983 by flow cytometry analysis relative to control. Type of data set: functional. Particulars: Human immunodeficiency virus 1, J-Lat 9.2.
The nature of data set [5]: Cytotoxicity against human CD4+ T cells derived from cARC-suppressed donors with HIV assessed as cell viability at 1 uM incubated for 24 hrs by trypan blue staining based analysis relative to control. Format: toxicity, CD4+ve Th. Particulars: primary CD4+ T cells from cART-suppressed donors with HIV, read-out: Activity.
The test system of data set [6] is Human immunodeficiency virus 1. The data set can be described thus: Reversal of HIV-1 latency in human CD4+ T cells derived from cARC-suppressed donors with HIV assessed as increase in viral RNA copies measured per ml of supernatant at 1 uM incubated for 24 hrs by qRT-PCR analysis (reference value: 191 +/- 321). Type of data set: functional, CD4+ve Th. (In general: In qPCR the cycle at which signal appears reflects the starting amount.)

Data set [7] deals with Human immunodeficiency virus 1. Briefly: Reversal of HIV-1 latency in human CD4+ T cells derived from cARC-suppressed donors with HIV assessed as fold increase in viral RNA copies measured per ml of supernatant at 1 uM incubated for 24 hrs by qRT-PCR analysis. Format: functional, CD4+ve Th.
The subject of data set [8] is Human immunodeficiency virus 1. The data set can be described thus: Reversal of HIV-1 latency infected in GFP-fused human J-Lat 9.2 cells assessed as increase in GFP expression at 30 uM incubated for 24 hrs by flow cytometry analysis relative to control. Type of data set: functional.
The nature of data set [9]: Inhibition of HIV-1 latency reversal in GFP-fused human J-lat 9.2 cells at 10 uM incubated for 24 hrs in presence of pan-PKC inhibitor Go 6983 by flow cytometry analysis relative to control. Particulars: Human immunodeficiency virus 1, J-Lat 9.2. Format: functional.
Data set [10] is described as follows: Cytotoxicity against human CD4+ T cells derived from cARC-suppressed donors with HIV assessed as cell viability at 10 uM incubated for 24 hrs by trypan blue staining based analysis relative to control. Format: toxicity, CD4+ve Th. Particulars: primary CD4+ T cells from cART-suppressed donors with HIV, read-out: Activity.
For data set [11], the system named is Human immunodeficiency virus 1. The data set can be described thus: Reversal of HIV-1 latency in human CD4+ T cells derived from cARC-suppressed donors with HIV assessed as increase in viral RNA copies measured per ml of supernatant at 10 uM incubated for 24 hrs by qRT-PCR analysis (reference value: 191 +/- 321). Type of data set: functional, CD4+ve Th.
The subject of data set [12] is Human immunodeficiency virus 1. Briefly: Reversal of HIV-1 latency in human CD4+ T cells derived from cARC-suppressed donors with HIV assessed as fold increase in viral RNA copies measured per ml of supernatant at 10 uM incubated for 24 hrs by qRT-PCR analysis. Format: functional, CD4+ve Th.

As for `CC(=O)O[C@H]1C[C@]2(C)c3cc(C)c(O)cc3C(C)=CC(=O)[C@@H]2[C@@]2(C)CCCC(C)(C)[C@H]12`, the Activity in data set [1] is 36.8%. Also, the inhibition at 3 µM in data set [2] was greater than 95%.
`CC1=C[C@H]2O[C@@H]([C@@H]3[C@@]4(C)CCCC(C)(C)[C@@H]4C=C[C@@]3(C)O)C=C(CO)[C@H]2CC1=O`: the results for the Activity in data set [3] and in data set [6] were 27.3% and 519, respectively. Moreover, the inhibition at 1 µM in data set [4] was greater than 95%. Also, the viability at 24 h, 1 µM in data set [5] was 82.4%. The “fold change (FC)” value in [7] was 2.7.
For `CC(=O)O[C@@]12C[C@@H](C)[C@@]3(O)[C@@H](C=C(CO)C[C@]4(O)C(=O)C(C)=C[C@@H]34)[C@@H]1C2(C)C` [PROSTRATIN], the Activity in [1] was found to be 11.1%; in data set [8], 11.7%; in data set [11], 685. The inhibition at 10 µM in data set [9] was greater than 90%. The viability at 24 h, 10 µM in data set [10] came out at 84%. In addition, in data set [12], the “fold change (FC)” value is 2.8.
Consider `CC(=O)O[C@]1(C)C[C@@H](/C=C(\C)CCC=C(C)C)O[C@@]2(C=C(CO)[C@H]3CC(=O)C(C)=C[C@H]3O2)C1`, for which, in data set [8], the Activity was 26.2%. In addition, the inhibition at 10 µM in data set [9] is greater than 90%.
